According to PMC5738443, “Peptide aptamer-modified single-walled carbon nanotube-based transistors for high-performance biosensors” (Scientific Reports, 2017):
Residues, ends and D or L forms follow the SMILES beside them.

Assays:
Cathepsin E (CatE) [1] = target: T1, Cathepsin E (CatE) (Homo sapiens, UniProt P14091); test: CatE detection in PBS with peptide aptamer-modified liquid-gated SWCNT FET; type: binding; conditions: aptamer on SWCNT FET via PBASE; CatE 0.1 to 1 ng/mL in 1× PBS pH 10, 10 min, 25 °C; measured in 0.0005× PBS pH 4, -0.6 V; read-out: Kd (Langmuir isotherm fit of FET response)
T1 construct: purchased BioVision, Inc. (CA, USA)
T1 sequence (P14091 54-396): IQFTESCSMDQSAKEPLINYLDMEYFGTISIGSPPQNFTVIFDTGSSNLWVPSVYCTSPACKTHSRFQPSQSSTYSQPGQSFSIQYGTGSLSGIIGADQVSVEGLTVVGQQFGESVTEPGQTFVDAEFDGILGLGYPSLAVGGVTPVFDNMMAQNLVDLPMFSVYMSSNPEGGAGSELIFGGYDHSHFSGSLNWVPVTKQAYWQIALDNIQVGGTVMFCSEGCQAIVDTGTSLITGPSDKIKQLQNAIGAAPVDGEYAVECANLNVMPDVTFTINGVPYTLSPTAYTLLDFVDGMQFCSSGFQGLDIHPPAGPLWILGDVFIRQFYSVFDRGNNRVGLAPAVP
Description: The peptide aptamer was immobilized onto the SWCNT channel via the PBASE linker prior to the capture of CatE. Next, the sensor was exposed to 0.0005× PBS pH 4 for electrical measurements. […] The transfer curve of the SWCNT FET initially shifted toward the negative bias direction after the immobilization of the peptide aptamer. With increasing CatE concentrations from 0.1 to 0.6 ng/mL, the curve further shifted toward the same direction. This phenomenon is attributed to the positively charged CatE molecules at PBS pH 4 (the isoelectric point of CatE is 4.69) inducing the gradual reduction of hole carriers in the SWCNT channel via a field effect. At concentrations greater than this concentration, the shift of the transfer curve is no longer observed because all peptide aptamer probe molecules are occupied by CatE molecules. The relative decrease in the “on” current (∆I/∆Imax), where ∆Imax represents the decrease in “on” current at a saturation level due to the interaction between CatE and peptide aptamer-modified SWCNT FETs, at a top liquid-gated voltage of −0.6 V was plotted as a function of CatE concentration, as shown in Fig. 5b. […]
We measured the transfer characteristics of the fabricated sensor using a top liquid-gated scheme in 0.0005× PBS pH 4. […]

Cathepsin E (CatE) [2] = target: T1, Cathepsin E (CatE); test: SPR analysis (Biacore X100) of peptide aptamer binding to Cathepsin E; conditions: Biacore X100, CM5 chip, aptamer immobilized via C-terminal biotin-streptavidin, 1000 RU; single-cycle, CatE 858.37-1.37 ng/mL; steady-state affinity; read-out: dissociation constant (Kd)
Text: CatE is composed of an in vitro-selected peptide aptamer (24 amino acids comprising two peptide blocks of 12- and 8-amino acids paired by a 4-amino acid linker) and a short alpha-strand peptide scaffold (7-amino acids). A Biacore X100 instrument was used to characterize the binding features of the peptide aptamer to CatE. A free N-terminal end of the peptide aptamer is necessary for its correct folding as a basis for the formation of the binding complex with the target. Therefore, the C-terminal end of the peptide aptamer with biotin-streptavidin chemistry was immobilized onto a CM5 sensor chip, and then CatE was injected as the analyte across this surface for interaction with the peptide aptamer. […] The dissociation constant (Kd) for the CatE was calculated as 0.954 ± 0.067 nM.
Figure 3 Peptide aptamer characterization. […] The data for the steady-state affinity binding plot were calculated from the end of the association phases against the analyte concentration. […]
A novel peptide aptamer that specifically recognizes CatE was engineered via systemic in vitro evolution. […] A steady-state affinity binding plot was calculated from the end of the association phases against the analyte concentration.

CC[C@H](C)[C@H](NC(=O)CNC(=O)CNC(=O)[C@H](CS)NC(=O)[C@@H](N)CO)C(=O)N[C@H](C(=O)N[C@H](C(=O)N[C@H](C(=O)N[C@@H](CO)C(=O)N[C@@H](CS)C(=O)N[C@H](C(=O)N[C@@H](C)C(=O)N[C@H](C(=O)N[C@H](C(=O)N[C@@H](CO)C(=O)N[C@@H](CC(C)C)C(=O)N[C@H](C(=O)N1CCC[C@H]1C(=O)NCC(=O)N[C@@H](CCCNC(=N)N)C(=O)N[C@H](C(=O)NCC(=O)N[C@@H](CS)C(=O)N[C@H](C(=O)N[C@@H](CCCNC(=N)N)C(=O)N[C@@H](C)C(=O)N[C@@H](CCCCN)C(=O)N[C@@H](C)C(=O)N[C@@H](C)C(=O)N[C@@H](C)C(=O)N[C@@H](CCCCN)C(=O)O)[C@@H](C)CC)[C@@H](C)CC)[C@@H](C)CC)[C@@H](C)CC)C(C)C)[C@@H](C)CC)[C@@H](C)CC)[C@@H](C)CC)[C@@H](C)CC [peptide aptamer] (H-SCGGIIIISCIAVISLIPGRIGCIRAKAAAK-OH)
Kd (Cathepsin E (CatE) [1]): 0.00277 nM | Kd (Cathepsin E (CatE) [2]): 0.954 nM
